The source made the active and inactive calls. Rule as the data show it: active = IC50 of 10 µM or less and inactive = more.
What was measured:
[1] = molecular target: Melanin-concentrating hormone receptor 1 (Homo sapiens, UniProt Q99705); test: Late-stage fluorescence-based counterscreen for antagonists of the G-protein coupled receptor 7 (GPR7): cell-based dose response assay to identify antagonists of the melanin-concentrating hormone receptor 1 (MCHR1) Set 6.; type: functional
[2] = molecular target: Neuropeptides B/W receptor type 1 (Homo sapiens, UniProt P48145); test: human NPBW1 receptor blockade, IC50 – cell-based, fluorescence, dose response, set 6, late-stage follow-up (AID 588583); type: functional
Chain of Neuropeptides B/W receptor type 1 (P48145 whole entry): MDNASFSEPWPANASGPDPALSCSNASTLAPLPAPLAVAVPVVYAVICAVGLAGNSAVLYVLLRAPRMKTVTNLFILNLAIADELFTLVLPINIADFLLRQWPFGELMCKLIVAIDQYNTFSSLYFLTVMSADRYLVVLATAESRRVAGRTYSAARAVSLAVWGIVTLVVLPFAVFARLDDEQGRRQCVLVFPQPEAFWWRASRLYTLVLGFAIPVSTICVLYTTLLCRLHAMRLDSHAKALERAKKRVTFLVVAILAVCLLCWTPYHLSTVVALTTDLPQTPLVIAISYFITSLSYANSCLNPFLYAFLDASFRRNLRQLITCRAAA

Chain of Melanin-concentrating hormone receptor 1 (Q99705 whole entry): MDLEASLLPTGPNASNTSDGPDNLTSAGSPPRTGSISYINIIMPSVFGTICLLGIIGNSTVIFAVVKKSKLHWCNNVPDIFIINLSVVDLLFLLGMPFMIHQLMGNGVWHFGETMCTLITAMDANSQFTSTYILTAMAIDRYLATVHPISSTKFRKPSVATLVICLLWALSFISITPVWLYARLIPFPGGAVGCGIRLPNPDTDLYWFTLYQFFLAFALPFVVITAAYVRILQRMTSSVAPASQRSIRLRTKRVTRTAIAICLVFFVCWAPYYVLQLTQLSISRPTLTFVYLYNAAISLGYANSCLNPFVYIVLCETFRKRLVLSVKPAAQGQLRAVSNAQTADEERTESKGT

## COc1ccc(Oc2c(Cl)cnn(Cc3ccccc3C(=O)O)c2=O)cc1
[1]
  IC50: > 20 µM (inactive)
[2]
  IC50: > 20 µM (inactive)

— ChEMBL document CHEMBL1201862, “PubChem BioAssay data set” (2004)
